Residues, ends and D or L forms follow the SMILES beside them.
Assays:
[1] = system: pups undergoing the OIR model; test: OIR model in pups, oral gavage: pre-retinal neovascularization, vaso-obliteration, vascular density; format: in vivo, mouse; details: for reduction in pre-retinal neovascularization relative to vehicle / area of vaso-obliteration: OIR pups; for reduction in pre-retinal neovascularization relative to vehicle: gavaged twice daily P12-P17, H&E cross-sections on P17; for area of vaso-obliteration: gavaged twice daily P12-P17, assessed in P17 pups, vehicle 30.4±7.9%
From the text: Retinopathy of prematurity (ROP) is the major cause of blindness in children. Supplementation with arginine or glutamine results in improved clinical outcomes in premature infants. In this study the protective effect of oral administration of Arg-Gln alone and in combination with DHA was examined in pups undergoing the OIR model. METHODS: Nursing dams and pups were returned to normal room air on P12 (postnatal day 12) and gavaged twice daily with: Arg-Gln, DHA, Arg-Gln+DHA or vehicle (P12-P17). Normoxic pups were treated in an identical manner. On P17 the pups were perfused with FITC-labeled dextran. One eye was embedded in paraffin, cross-sectioned and H&E (hematoxylin and eosin) stained for analysis of pre-retinal neovascularization. The retina from the second eye was removed and underwent microscopic analysis for the vessel regrowth, which was evaluated by vessel density.

[2] = system: retinal cell culture model; test: retinal cell culture model, transepithelial resistance (TER); format: cell-based
[3] = system: vascular endothelial growth factor (VEGF); test: retinal cell culture model, vascular endothelial growth factor (VEGF); format: cell-based

SMILES | pre-retinal neovascularization (result in words) ([1]; OIR mouse model, conclusions) | vaso-obliteration (result in words) ([1]; OIR mouse model, conclusions) | intra-retinal vascular density, a measure of vascular regrowth ([1]; OIR pups following hyperoxia exposure, P17, compared to vehicle treated and normoxic pups) | reduction in pre-retinal neovascularization relative to vehicle [1] [%] | area of vaso-obliteration [1] [%] | transepithelial resistance (TER) [2] | vascular endothelial growth factor (VEGF) [3]
N=C(N)NCCC[C@H](N)C(=O)N[C@@H](CCC(N)=O)C(=O)O [Arg-Gln dipeptide, arginyl-glutamine] (H-Arg-Gln-OH) | dramatically inhibited | reduced | restored | 35±1 | 4.8±1.0 | increased | decreased
CC/C=C\C/C=C\C/C=C\C/C=C\C/C=C\C/C=C\CCC(=O)O [DHA, decosahexaenoic acid] | – | – | – | 45±2 | 3.6±1.3 | – | –
